Experimental data from patent US20100240589A1, “DIASTEREOMERIC PEPTIDES USEFUL AS INHIBITORS OF MEMBRANE PROTEIN ASSEMBLY” (YEDA RESEARCH AND DEVELOPMENT CO., LTD. AT THE WEIZMANN …, priority 2003, published 2010).

Test system: CP362 bacteria overexpressing the Tar receptor (pNT201)
Test: Swarm assay on TB semi-solid agar (chemotaxis)
Format: cell-based, Escherichia coli
Settings: 20 μM peptide, 35° C.

KKKMVLGVFALLQLISGSLKK [Tar-1 all-L, peptide corresponding to the transmembrane domain 1 of Tar, reference compound]
expansion speed / chemotactic behavior of the bacteria: significantly reduced

KKKMVLGVFALLFLIGGSLKK [F/G mutant peptide]
expansion speed / chemotactic behavior of the bacteria: no significant effect
